Data as given in PubChem BioAssay AID1963984 (Molecular Pharmacology Branch, DTP, NCI, 2024).

Tested on: 233499-124-R-J3-PDC spheroids with HUVEC/MSC, viability
Assay: Anticancer human tumor 233499-124-R-J3-PDC patient-derived colon adenocarcinoma cell line growth inhibition [PI3K]
Settings: for viability, T/C: stronger effect = lower value
Method in brief: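 Complex 3D spheroids (cancer cells + endothelial HUVEC + mesenchymal stem cells); drug pairs of targeted agent x inavolisib/alpelisib/duvelisib/copanlisib; half-log series from ~Cmax, max 10 microM if Cmax unknown; endpoint viability.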

[1] = curve of first compound, second compound 0.00316 µM
[2] = curve of first compound, second compound 0.01 µM
[3] = curve of first compound, second compound 0.0316 µM
[4] = curve of first compound, second compound 0.1 µM
[5] = curve of first compound, second compound 0.316 µM
[6] = curve of first compound, second compound 1 µM
[7] = second compound 0.00316 µM, first compound 0.0316 µM
[8] = second compound 0.00316 µM, first compound 0.1 µM
[9] = second compound 0.00316 µM, first compound 0.316 µM
[10] = second compound 0.00316 µM, first compound 1 µM
[11] = second compound 0.00316 µM, first compound 3.16 µM
[12] = second compound 0.00316 µM, first compound 10 µM
[13] = second compound 0.01 µM, first compound 0.0316 µM
[14] = second compound 0.01 µM, first compound 0.1 µM
[15] = second compound 0.01 µM, first compound 0.316 µM
[16] = second compound 0.01 µM, first compound 1 µM
[17] = second compound 0.01 µM, first compound 3.16 µM
[18] = second compound 0.01 µM, first compound 10 µM
[19] = second compound 0.0316 µM, first compound 0.0316 µM
[20] = second compound 0.0316 µM, first compound 0.1 µM
[21] = second compound 0.0316 µM, first compound 0.316 µM
[22] = second compound 0.0316 µM, first compound 1 µM
[23] = second compound 0.0316 µM, first compound 3.16 µM
[24] = second compound 0.0316 µM, first compound 10 µM
[25] = second compound 0.1 µM, first compound 0.0316 µM
[26] = second compound 0.1 µM, first compound 0.1 µM
[27] = second compound 0.1 µM, first compound 0.316 µM
[28] = second compound 0.1 µM, first compound 1 µM
[29] = second compound 0.1 µM, first compound 3.16 µM
[30] = second compound 0.1 µM, first compound 10 µM
[31] = second compound 0.316 µM, first compound 0.0316 µM
[32] = second compound 0.316 µM, first compound 0.1 µM
[33] = second compound 0.316 µM, first compound 0.316 µM
[34] = second compound 0.316 µM, first compound 1 µM
[35] = second compound 0.316 µM, first compound 3.16 µM
[36] = second compound 0.316 µM, first compound 10 µM
[37] = second compound 1 µM, first compound 0.0316 µM
[38] = second compound 1 µM, first compound 0.1 µM
[39] = second compound 1 µM, first compound 0.316 µM
[40] = second compound 1 µM, first compound 1 µM
[41] = second compound 1 µM, first compound 3.16 µM
[42] = second compound 1 µM, first compound 10 µM
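Also: spheroids exposed to agents for seven days before readout.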
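For viability, T/C in this document: percent viability relative to DMSO vehicle control taken as 100%.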

In the case of CNC(=O)c1ccc(N2C(=S)N(c3ccc(C#N)c(C(F)(F)F)c3)C(=O)C2(C)C)cc1F + COc1c(OCCCN2CCOCC2)ccc2c3n(c(=NC(=O)c4cnc(N)nc4)nc12)CCN3, the IC50 [1] is reported as > 10 µM, the IC50 [2] is reported as > 10 µM and the IC50 [3] is reported as > 10 µM. The IC50 [4] was 4.12 µM, the IC50 [5] was < 0.0316 µM and the IC50 [6] was < 0.0316 µM. The viability, T/C [7] was 93.8%, the viability, T/C [8] was 97.3% and the viability, T/C [9] was 97.2%. For the same compound, the viability, T/C [10] was 81.9%, the viability, T/C [11] was 65.7% and the viability, T/C [12] was 54.3%. The viability, T/C [13] was 88.1%, the viability, T/C [14] was 105% and the viability, T/C [15] was 99%. It also gave a viability, T/C [16] of 87.7%, a viability, T/C [17] of 89.9% and a viability, T/C [18] of 60.1%. For the same compound, the viability, T/C [19] was 101%, the viability, T/C [20] was 85.3% and the viability, T/C [21] was 98.3%. For the same compound, the viability, T/C [22] was 78.1%, the viability, T/C [23] was 63.8% and the viability, T/C [24] was 50.4%. For the same compound, the viability, T/C [25] was 84%, the viability, T/C [26] was 53.8% and the viability, T/C [27] was 75.2%. For the same compound, the viability, T/C [28] was 64.2%, the viability, T/C [29] was 47.4% and the viability, T/C [30] was 44%. The viability, T/C [31] was 33%, the viability, T/C [32] was 30.5% and the viability, T/C [33] was 44.1%. It also gave a viability, T/C [34] of 32.3%, a viability, T/C [35] of 30.7% and a viability, T/C [36] of 12.1%. For the same compound, the viability, T/C [37] was 10%, the viability, T/C [38] was 24.7% and the viability, T/C [39] was 6.89%. For the same compound, the viability, T/C [40] was 5.24%, the viability, T/C [41] was 10.3% and the viability, T/C [42] was 4.27%.
For CC(Cn1ccc(-c2ccc(C#N)c(Cl)c2)n1)NC(=O)c1cc(C(C)O)[nH]n1 (stereo not drawn), the viability, T/C (compound 0.316 µM) was 97.2% [middle of 4 runs], the viability, T/C (compound 1 µM) was 98.2% [middle of 4 runs] and the viability, T/C (compound 3.16 µM) was 92.5% [middle of 4 runs]. For the same compound, the IC50 (curve of compound) was > 10 µM.
In the case of C=CC(=O)N1CCN(c2nc(=O)n(-c3c(C)ccnc3C(C)C)c3nc(-c4c(O)cccc4F)c(F)cc23)C(C)C1 (stereo not drawn) + CC(Nc1ccc2c(c1)OCCn1cc(N3C(=O)OCC3C(F)F)nc1-2)C(N)=O, the IC50 [1] is reported as > 10 µM, the IC50 [2] is reported as > 10 µM and the IC50 [3] is reported as > 10 µM. For the same compound, the IC50 [4] was > 10 µM, the IC50 [5] was > 10 µM and the IC50 [6] was > 10 µM. The viability, T/C [7] was 101%, the viability, T/C [8] was 87.5% and the viability, T/C [9] was 87.9%. The viability, T/C [10] was 113%, the viability, T/C [11] was 100% and the viability, T/C [12] was 100%. The viability, T/C [13] was 85.9%, the viability, T/C [14] was 88.8% and the viability, T/C [15] was 77.5%. For the same compound, the viability, T/C [16] was 95.6%, the viability, T/C [17] was 97.5% and the viability, T/C [18] was 86.2%. The viability, T/C [19] was 85.8%, the viability, T/C [20] was 106% and the viability, T/C [21] was 91.4%. For the same compound, the viability, T/C [22] was 92.8%, the viability, T/C [23] was 93.5% and the viability, T/C [24] was 84.6%. For the same compound, the viability, T/C [25] was 103%, the viability, T/C [26] was 94.5% and the viability, T/C [27] was 91.3%. The viability, T/C [28] was 83%, the viability, T/C [29] was 87% and the viability, T/C [30] was 57.1%. It also gave a viability, T/C [31] of 92.7%, a viability, T/C [32] of 80.5% and a viability, T/C [33] of 80.8%. It also gave a viability, T/C [34] of 77.4%, a viability, T/C [35] of 71% and a viability, T/C [36] of 85.5%. For the same compound, the viability, T/C [37] was 61%, the viability, T/C [38] was 67.7% and the viability, T/C [39] was 44.3%. It also gave a viability, T/C [40] of 56.3%, a viability, T/C [41] of 63.6% and a viability, T/C [42] of 66.9%.
